Values of other authors, collected in patent US20220241167A1, “PRODUCT FOR TREATING KERATINOUS FIBERS, CONTAINING SILANES OF SPECIFIC FORMULAE” (Henkel AG & Co. KGaA, priority 2019, published 2022).

Conditions: for solubility in water: 25° C.

Row | solubility in water (in words) (at 25° C.) | Compound | solubility in water
1 |  | O=S(=O)([O-])c1ccc(N=Nc2c(O)ccc3ccccc23)cc1.[Na+] [Acid Orange 7, sodium salt of 4-[(2-hydroxy-1-naphthyl)azo]benzene sulphonate] | more than 7 g/L
2 |  | Nc1cc(S(=O)(=O)[O-])cc2cc(S(=O)(=O)[O-])c(N=Nc3ccccc3)c(O)c12.[Na+].[Na+] [Acid Red 33, diantrium salt of 5-amino-4-hydroxy-3-(phenylazo)-naphthalene-2,7-disulphonate] | about 2.5 g/L
3 | highly soluble in water | O=C([O-])C1=NN(c2ccc(S(=O)(=O)[O-])cc2)C(=O)C1N=Nc1ccc(S(=O)(=O)[O-])cc1.[Na+].[Na+].[Na+] (stereo not drawn) [Acid Yellow 23, trisodium salt of 4,5-dihydro-5-oxo-1-(4-sulfophenyl)-4-((4-sulfophenyl)azo)-1H-pyrazole-3-carboxylic acid] | 
